From patent publication US20170210751A1, “PRMT5 INHIBITORS AND USES THEREOF” (Epizyme, Inc., priority 2014, published 2017)

Test system: Symmetric di-Methyl Arginine in Z-138 cells
Assay: Z-138 Methylation Assay (In Cell Western for symmetric di-methyl arginine)
Assay type: cell-based
Settings: Homo sapiens, 96 hours incubation, symmetric di-methyl arginine normalised to DNA content, read-out: ICW EC50
Excerpt: Z-138 suspension cells were purchased from ATCC (American Type Culture Collection, Manassas, Va.). RPMI/Glutamax medium, penicillin-streptomycin, heat inactivated fetal bovine serum, and D-PBS were purchased from Life Technologies, Grand Island, N.Y., USA. Odyssey blocking buffer, 800CW goat anti-rabbit IgG (H+L) antibody, and Licor Odyssey infrared scanner were purchased from Licor Biosciences, Lincoln, Nebr., USA. Symmetric di-methyl arginine antibody was purchased from EMD Millipore, Billerica, Mass., USA. 16% Paraformaldehyde was purchased from Electron Microscopy Sciences, Hatfield, Pa., USA.
Z-138 suspension cells were maintained in growth medium (RPMI 1640 supplemented with 10% v/v heat inactivated fetal bovine serum and 100 units/mL penicillin-streptomycin) and cultured at 37° C. under 5% CO2.
Cell Treatment, In Cell Western (ICW) for detection of Symmetric di-Methyl Arginine and DNA content.
Z-138 cells were seeded in assay medium at a concentration of 50,000 cells per mL to a 384-well cell culture plate with 50 μL per well. Compound (100 nL) from 384 well source plates was added directly to 384 well cell plate. Plates were incubated at 37° C., 5% CO2 for 96 hours. After four days of incubation, 40 μL of cells from incubated plates were added to poly-D-lysine coated 384 well culture plates (BD Biosciences 356697). Plates were incubated at room temperature for 30 minutes then incubated at 37° C., 5% CO2 for 5 hours. After the incubation, 40 μL per well of 8% paraformaldehyde in PBS (16% paraformaldahyde was diluted to 8% in PBS) was added to each plate and incubated for 30 minutes. Plates were transferred to a Biotek 405 plate washer and washed 5 times with 100 μL per well of wash buffer (IX PBS with 0.1% Triton X-100 (v/v)). Next […] well of Odyssey blocking buffer were added to each plate and incubated 1 hour at room temperature. Blocking buffer was removed and 20 μL per well of primary antibody was added (symmetric di-methyl arginine diluted 1:100 in Odyssey buffer with 0.1% Tween 20 (v/v)) and plates were incubated overnight (16 hours) at 4° C. Plates were washed 5 times with 100 μL per well of wash buffer. Next 20 μL per well of secondary antibody was added (1:200 800CW goat anti-rabbit IgG (H+L) antibody, 1:1000 DRAQ5 (Biostatus limited) in Odyssey buffer with 0.1% Tween 20 (v/v)) and incubated for 1 hour at room temperature. The plates were washed 5 times with 100 μL per well wash buffer then 1 time with 100 μL per well of water. Plates were allowed to dry at room temperature then imaged on the Licor Odyssey machine which measures integrated intensity at 700 nm and 800 nm wavelengths. Both 700 and 800 channels were scanned.
First, the ratio for each well was determined by:
Each plate included fourteen control wells of DMSO only treatment (minimum inhibition) as well as fourteen control wells for maximum inhibition treated with 3 μM of a reference compound (Background wells). The average of the ratio values for each control type was calculated and used to determine the percent inhibition for each test well in the plate. Reference compound was serially diluted three-fold in DMSO for a total of nine test concentrations, beginning at 3 μM. Percent inhibition was determined and IC50 curves were generated using triplicate wells per concentration of compound.

With `CC(=O)N1CC(Nc2cc(C(=O)NC[C@H](O)CN3CCc4oc(C)nc4C3)ncn2)C1` [Compound 4-2, (S)-6-((1-acetylazetidin-3-yl)amino)-N-(2-hydroxy-3-(2-methyl-6,7-dihydrooxazolo[4,5-c]pyridin-5(4H)-yl)propyl)pyrimidine-4-carboxamide] the EC50 was over 1000 nM.
Molecule `CC(=O)N1CCC(Nc2cc(C(=O)NC[C@H](O)CN3CCc4oc(C)nc4C3)ncn2)CC1` [Compound 4-3, (S)-6-((1-acetylpiperidin-4-yl)amino)-N-(2-hydroxy-3-(2-methyl-6,7-dihydrooxazolo[4,5-c]pyridin-5(4H)-yl)propyl)pyrimidine-4-carboxamide] has an EC50 of over 1000 nM.
In the case of `CC(=O)N1CC(Nc2cc(C(=O)NC[C@H](O)CN3CCc4nc(N)sc4C3)ncn2)C1` [Compound 1-29], the EC50 is reported as over 1000 nM.
`CC(=O)N1CCC(Nc2cc(C(=O)NC[C@H](O)CN3CCc4scc(C)c4C3)ccn2)CC1` [Compound 1-14, (S)-2-((1-acetylpiperidin-4-yl)amino)-N-(2-hydroxy-3-(3-methyl-6,7-dihydrothieno[3,2-c]pyridin-5(4H)-yl)propyl)isonicotinamide] gave an EC50 of under 100 nM.
For `CC(=O)N1CCC(Nc2cc(C(=O)NC[C@H](O)CN3CCc4sccc4C3)ncn2)CC1` [Compound 1-3, (S)-6-((1-acetylpiperidin-4-yl)amino)-N-(3-(6,7-dihydrothieno[3,2-c]pyridin-5(4H)-yl)-2-hydroxypropyl)pyrimidine-4-carboxamide], the EC50 was under 100 nM.
Work on `CC(=O)N1CCC(Nc2cc(C(=O)NC[C@H](O)CN3CCc4nc(N)sc4C3)ncn2)CC1` [Compound 1-38] yielded an EC50 of over 1000 nM.
Work on `CC(=O)N1CCC(Nc2cc(C(=O)NC[C@H](O)CN3CCc4oc(C)nc4C3)ccn2)CC1` [Compound 4-4, (S)-2-((1-acetylpiperidin-4-yl)amino)-N-(2-hydroxy-3-(2-methyl-6,7-dihydrooxazolo[4,5-c]pyridin-5(4H)-yl)propyl)isonicotinamide] yielded an EC50 of over 1000 nM.
Molecule `CC(=O)N1CCC(Nc2cc(C(=O)NC[C@H](O)CN3CCc4c(cnn4C)C3)ccn2)CC1` [Compound 3-52] has an EC50 of over 1000 nM.
`O=C(COc1cccc2cccnc12)NCC(O)CN1CCc2nc[nH]c2C1` (centres unmarked) [Compound 3-10, N-(2-hydroxy-3-{3H,4H,5H,6H,7H-imidazo[4,5-c]pyridin-5-yl}propyl)-2-(quinolin-8-yloxy)acetamide] showed an EC50 of over 1000 nM.
Work on `CC(=O)N1CCC(Nc2cc(C(=O)NC[C@H](O)CN3CCc4sc(N)nc4C3)ccn2)CC1` [Compound 1-34] yielded an EC50 of over 1000 nM.
With `CC(=O)N1CCC(Nc2cc(C(=O)NC[C@H](O)CN3CCc4cccnc4C3)ccn2)CC1` [Compound 2-21, (S)-2-((1-acetylpiperidin-4-yl)amino)-N-(3-(5,6-dihydro-1,7-naphthyridin-7(8H)-yl)-2-hydroxypropyl)isonicotinamide] the EC50 was 101 to 1000 nM.
Molecule `CC(=O)N1CC(Nc2cc(C(=O)NC[C@H](O)CN3CCc4sc(C)nc4C3)ncn2)C1` [Compound 1-27] has an EC50 of over 1000 nM.
`CC(=O)N1CC(Nc2cc(C(=O)NC[C@H](O)CN3CCc4[nH]c(C)nc4C3)ncn2)C1` [Compound 3-47] gave an EC50 of over 1000 nM.
Molecule `O=C(NC[C@H](O)CN1CCc2cnccc2C1)c1cc(NC2COC2)ncn1` [Compound 2-15] has an EC50 of over 1000 nM.
`CC(=O)N1CCC(Nc2cc(C(=O)NC[C@H](O)CN3CCc4ncccc4C3)ccn2)CC1` [Compound 2-20, (S)-2-((1-acetylpiperidin-4-yl)amino)-N-(3-(7,8-dihydro-1,6-naphthyridin-6(5H)-yl)-2-hydroxypropyl)isonicotinamide] gave an EC50 of 101 to 1000 nM.
With `O=C(COc1cccc2cccnc12)NCC(O)CN1CCc2ccncc2C1` (centres unmarked) [Compound 2-8, N-[2-hydroxy-3-(1,2,3,4-tetrahydro-2,7-naphthyridin-2-yl)propyl]-2-(quinolin-8-yloxy)acetamide] the EC50 was over 1000 nM.
For `CC(=O)N1CCC(Nc2cc(C(=O)NC[C@H](O)CN3CCc4sc(N)nc4C3)ncn2)CC1` [Compound 1-37], the EC50 was over 1000 nM.
`CC(=O)N1CCC(Nc2cc(C(=O)NC[C@H](O)CN3CCc4c(cnn4C)C3)ncn2)CC1` [Compound 3-56] showed an EC50 of over 1000 nM.
`CC(=O)N1CCC(Nc2cc(C(=O)NC[C@H](O)CN3CCc4sc(C)nc4C3)ncn2)CC1` [Compound 1-36] was tested, and the EC50 was over 1000 nM.
`Cc1nc2c(o1)CCN(C[C@@H](O)CNC(=O)c1cc(NC3COC3)ncn1)C2` [Compound 4-1, (S)—N-(2-hydroxy-3-(2-methyl-6,7-dihydrooxazolo[4,5-c]pyridin-5(4H)-yl)propyl)-6-(oxetan-3-ylamino)pyrimidine-4-carboxamide] showed an EC50 of over 1000 nM.
For `CC(=O)N1CC(Nc2cc(C(=O)NC[C@H](O)CN3CCc4[nH]cnc4C3)ncn2)C1` [Compound 3-33, (S)-6-((1-acetylazetidin-3-yl)amino)-N-(3-(6,7-dihydro-1H-imidazo[4,5-c]pyridin-5(4H)-yl)-2-hydroxypropyl)pyrimidine-4-carboxamide], the EC50 was over 1000 nM.
Molecule `CC(=O)N1CC(Nc2cc(C(=O)NC[C@H](O)CN3CCc4sc(N)nc4C3)ncn2)C1` [Compound 1-28] has an EC50 of over 1000 nM.
Work on `Cc1csc2c1CN(C[C@@H](O)CNC(=O)c1cc(NC3COC3)ncn1)CC2` [Compound 1-11, (S)—N-(2-hydroxy-3-(3-methyl-6,7-dihydrothieno[3,2-c]pyridin-5(4H)-yl)propyl)-6-(oxetan-3-ylamino)pyrimidine-4-carboxamide] yielded an EC50 of under 100 nM.
`CC(=O)N1CCC(Nc2cc(C(=O)NC[C@H](O)CN3CCc4nc(N)sc4C3)ccn2)CC1` [Compound 1-35] gave an EC50 of over 1000 nM.
Molecule `CC(=O)N1CC(Nc2cc(C(=O)NC[C@H](O)CN3CCc4cn[nH]c4C3)ncn2)C1` [Compound 3-44] has an EC50 of over 1000 nM.
In the case of `CC(=O)N1CC(Nc2cc(C(=O)NC[C@H](O)CN3CCc4[nH]nc(-c5ccccc5)c4C3)ncn2)C1` [Compound 3-11, (S)-6-((1-acetylazetidin-3-yl)amino)-N-(2-hydroxy-3-(3-phenyl-6,7-dihydro-1H-pyrazolo[4,3-c]pyridin-5(4H)-yl)propyl)pyrimidine-4-carboxamide], the EC50 is reported as over 1000 nM.
With `O=C(NC[C@H](O)CN1CCc2[nH]nc(-c3ccccc3)c2C1)c1cc(NC2COC2)ncn1` [Compound 3-17, (S)—N-(2-hydroxy-3-(3-phenyl-6,7-dihydro-1H-pyrazolo[4,3-c]pyridin-5(4H)-yl)propyl)-6-(oxetan-3-ylamino)pyrimidine-4-carboxamide] the EC50 was over 1000 nM.
In the case of `CC(=O)N1CCC(Nc2cc(C(=O)NC[C@H](O)CN3CCc4c(ncn4C)C3)ccn2)CC1` [Compound 3-22, (S)-2-((1-acetylpiperidin-4-yl)amino)-N-(2-hydroxy-3-(1-methyl-6,7-dihydro-1H-imidazo[4,5-c]pyridin-5(4H)-yl)propyl)isonicotinamide], the EC50 is reported as over 1000 nM.
With `CC(=O)N1CC(Nc2cc(C(=O)NC[C@H](O)CN3CCc4[nH]ncc4C3)ncn2)C1` [Compound 3-23] the EC50 was over 1000 nM.
`O=C(COc1cccc2cccnc12)NCC(O)CN1CCc2cnccc2C1` (centres unmarked) [Compound 2-7, N-[2-hydroxy-3-(1,2,3,4-tetrahydro-2,6-naphthyridin-2-yl)propyl]-2-(quinolin-8-yloxy)acetamide] was tested, and the EC50 was over 1000 nM.
Work on `CC(=O)N1CCC(Nc2cc(C(=O)NC[C@H](O)CN3CCc4[nH]cnc4C3)ccn2)CC1` [Compound 3-36, (S)-2-((1-acetylpiperidin-4-yl)amino)-N-(3-(6,7-dihydro-1H-imidazo[4,5-c]pyridin-5(4H)-yl)-2-hydroxypropyl)isonicotinamide] yielded an EC50 of over 1000 nM.
In the case of `O=C(NC[C@H](O)CN1CCc2ncccc2C1)c1cc(NC2COC2)ncn1` [Compound 2-12, (S)—N-(3-(7,8-dihydro-1,6-naphthyridin-6(5H)-yl)-2-hydroxypropyl)-6-(oxetan-3-ylamino)pyrimidine-4-carboxamide], the EC50 is reported as over 5000 nM.
Work on `CC(=O)N1CCC(Nc2cc(C(=O)NC[C@H](O)CN3CCc4cn[nH]c4C3)ncn2)CC1` [Compound 3-51] yielded an EC50 of over 1000 nM.
For `CC(=O)N1CCC(Nc2cc(C(=O)NC[C@H](O)CN3CCc4cnccc4C3)ccn2)CC1` [Compound 2-18], the EC50 was 101 to 1000 nM.
In the case of `Nc1nc2c(s1)CN(C[C@@H](O)CNC(=O)c1cc(NC3COC3)ncn1)CC2` [Compound 1-23], the EC50 is reported as over 1000 nM.
